In US6353029B1, “Storage stable tretinoin and 4-hydroxyanisole containing topical composition” (Bristol-Myers Squibb Company, priority 2000, dated 2002):
Read-outs that look alike come from different tables or passages of the source.

Legend:
[1] = cited from earlier work
[2] = Physical and chemical stability of tretinoin/4-HA cream compositions; assay type: physicochemical; conditions: creams with other emulsifiers and thickeners added, containing 4-HA
Source text: In an effort to develop a pharmaceutically elegant dermatological composition containing tretinoin and 4-HA and having long term storage stability (as hereinafter defined), the present inventors incorporated the tretinoin and 4-HA in cream compositions. The oil-in-water emulsion based creams broke. Most likely, this was due to the 4-HA component as it is soluble in both the oil phase and water phase.

stability of tretinoin [2]: very unstable
SMILES: CC1=C(/C=C/C(C)=C/C=C/C(C)=C/C(=O)O)C(C)(C)CCC1 [tretinoin, all-trans retinoic acid]
shelf life of tretinoin ([1]; aqueous gel with Cremophor RH40 as solubilizing agent): 3 months
shelf life of tretinoin ([1]; aqueous gel without Cremophor RH40): 10 months
shelf life of tretinoin ([1]; propylene glycol-alcohol solution at 25° C, 0.05% tretinoin): 6.7 months
